This note sets out measurements from patent US5449814A, “Lignan analogues, methods of preparation thereof and anti-hyperlipemic agents” (Shionogi & Co., Ltd., priority 1991, dated 1995).

Where two headings read alike, the source gives them in different places.

The subject of test [1] is LDL. As to the kind of experiment: Inhibitory effect on oxidative modification of LDL (copper-induced, TBA reactive substances). To be noted: rabbit LDL 0.2 mg protein/ml, 0.5 μM Cu^2+, 37° C., 24 hours; read-out: Inhibition of LDL oxidation IC50. In kind it is biochemical, New Zealand albino rabbits. The protocol:
Inhibitory effect on oxidative modification of LDL
According to the method by Kita et al. (Proc. Natl. Acad. Sci., U.S.A, Vol. 84, 5928 (1987)), the experiment was proceeded as follows.
LDL was isolated from the blood of New Zealand albino rabbits fed with a diet containing 0.5% cholesterol for 3 weeks, and dissolved in phosphate-buffered physiological saline (final LDL concentration: 0.2 mg protein/ml). To this solution, each test compound in ethanol was added and then copper sulfate (final Cu^2+ concentration: 0.5 μM) was added thereto. The mixture was incubated at 37° C. for 24 hours.
After incubation, the content of lipid peroxides in each solution was determined as thiobarbituric acid reactive substances (TBA reactive substances). Concentration for 50% inhibition (IC50) was obtained from a linear regression curve of concentration of a compound versus % inhibition of oxidative modification of LDL. To quantify TBA reactive substances, proteins were removed from the solution after incubation, and the supernatant was examined for the content of TBA reactive substances by TBA method.

For test [2], the system named is cholesterol in serum. As to the kind of experiment: Hypocholesterolemic effect in cholesterol-fed mice. In kind it is in vivo, Male ICR mice. To be noted: Mus musculus, po, 168 h, diet 1% cholesterol and 0.5% sodium cholate with 0.12% test compound, 7 days. Here is the method: Hypocholesterolemic effect
Male ICR mice weighing 30 to 40 g were allowed to access to a diet containing 1% cholesterol and 0.5% sodium cholate supplemented with 0.12% of a test compound (no test compound in control group) ad libitum for 7 days. Then, the blood was taken and total cholesterol in serum was determined by the method of Allain (Clin. Chem., Vol. 20, 470 (1974)).
Total amount of VLDL cholesterol and LDL cholesterol was obtained by subtracting HLD cholesterol from total cholesterol. HLD cholesterol was quantified by the method of Ash and Hentschel et al. (Clin. Chem., Vol. 24, 2180 (1978)).
Hypocholesterolemic effect of a test compound was evaluated based on % reduction in cholesterol calculated using the equation shown below.

The mark [3] stands for this setting: serum, read-out: Total Chol. reduction (%).
Where [4] appears, read: total minus HDL cholesterol, read-out: (VLDL + LDL) Chol. reduction (%).

With `CCC(CC)CC(=O)c1c(C(=O)OC)c(-c2ccc(OC)c(OC)c2)c2c(OC)c(OC)c(OC)cc2c1O` [Example 1, 1-(3,4-dimethoxyphenyl)-3-(3-ethyl-1-oxopentyl)-4-hydroxy-2-methoxycarbonyl-6,7,8-trimethoxynaphthalene], the IC50 (commonly the concentration that inhibits the measured activity by half) in test [1] worked out at 400 nM. Besides, the inhibition in vivo at 0.12 % in diet in test [2] (setting [3]) was 35%; in test [2] (setting [4]), 72%.
Regarding `COC(=O)c1c(C(C)=O)c(O)c2cc(OC)c(OC)c(OC)c2c1-c1ccc(OC)c(OC)c1` [Example 2, 3-Acetyl-1-(3,4-dimethoxyphenyl)-4-hydroxy-2-methoxycarbonyl-6,7,8-trimethoxynaphthalene], in test [1], the IC50 was 1240 nM. The inhibition in vivo at 0.12 % in diet worked out at 22% in test [2] (setting [3]) and 59% in test [2] (setting [4]).
As for `COC(=O)c1c(C(=O)C(C)C)c(O)c2cc(OC)c(OC)c(OC)c2c1-c1ccc(OC)c(OC)c1` [Example 3, 1-(3,4-Dimethoxyphenyl)-4-hydroxy-2-methoxycarbonyl-3-(2-methyl-1-oxopropyl)-6,7,8-trimethoxynaphthalene], the IC50 in test [1] was determined as 120 nM. Moreover, the inhibition in vivo at 0.12 % in diet was determined as 21% in test [2] (setting [3]) and 57% in test [2] (setting [4]).
The corresponding values for `CCC(CC)C(=O)c1c(C(=O)OC)c(-c2ccc(OC)c(OC)c2)c2c(OC)c(OC)c(OC)cc2c1O` [Example 4, 1-(3,4-Dimethoxyphenyl)-3-(2-ethyl-1-oxobutyl)-4-hydroxy-2-methoxycarbonyl-6,7,8-trimethoxynaphthalene] are 650 nM, 28% and 78%.
As for `COC(=O)c1c(C(=O)C2CCCCC2)c(O)c2cc(OC)c(OC)c(OC)c2c1-c1ccc(OC)c(OC)c1` [Example 5, 3-Cyclohexanoyl-1-(3,4-dimethoxyphenyl)-4-hydroxy-2-methoxycarbonyl-6,7,8-trimethoxynaphthalene], the IC50 in test [1] was determined as 460 nM. For the same molecule, the figures for the inhibition in vivo at 0.12 % in diet in test [2] (setting [3]) and in test [2] (setting [4]) were 22% and 61%, respectively.
In the case of `COC(=O)c1c(C(=O)c2ccccc2)c(O)c2cc(OC)c(OC)c(OC)c2c1-c1ccc(OC)c(OC)c1` [Example 6, 3-Benzoyl-1-(3,4-dimethoxyphenyl)-4-hydroxy-2-methoxycarbonyl-6,7,8-trimethoxynaphthalene], in test [1], the IC50 turned out to be 180 nM. Also, the inhibition in vivo at 0.12 % in diet in test [2] (setting [3]) amounted to 16%; in test [2] (setting [4]), 55%.
`COC(=O)c1c(C(=O)CC2CCCCC2)c(O)c2cc(OC)c(OC)c(OC)c2c1-c1ccc(OC)c(OC)c1` [Example 7, 3-(2-Cyclohexyl-1-oxoethyl)-1-(3,4-dimethoxyphenyl)-4-hydroxy-2-methoxycarbonyl-6,7,8-trimethoxynaphthalene]: the IC50 in test [1] amounted to 2580 nM. For the same molecule, the inhibition in vivo at 0.12 % in diet in test [2] (setting [3]) worked out at 23%; in test [2] (setting [4]) it was 59%.
As for `COC(=O)c1c(C(=O)Cc2ccccc2)c(O)c2cc(OC)c(OC)c(OC)c2c1-c1ccc(OC)c(OC)c1` [Example 8, 1-(3,4-Dimethoxyphenyl)-4-hydroxy-2-methoxycarbonyl-3-(2-phenyl-1-oxoethyl)-6,7,8-trimethoxynaphthalene], in test [1], the IC50 was 4670 nM. Further, the inhibition in vivo at 0.12 % in diet turned out to be 17% in test [2] (setting [3]) and 50% in test [2] (setting [4]).
On to `CCC(CC)CC(=O)c1c(C(=O)OC)c(-c2ccc(OC)c(OC)c2)c2sccc2c1O` [Example 15, 7-(3,4-Dimethoxyphenyl)-5-(3-ethyl-1-oxopentyl)-4-hydroxy-6-(methoxycarbonyl)benzo[b]thiophene], for which, in test [1], the IC50 was 7900 nM. Besides, the inhibition in vivo at 0.12 % in diet in test [2] (setting [3]) was found to be 23%; in test [2] (setting [4]), 43%.
In the case of `CCC(=O)c1c(C(=O)OC)c(-c2ccc(OC)c(OC)c2)c2c(OC)c(OC)c(OC)cc2c1O` [Example 16, 1-(3,4-Dimethoxyphenyl)-4-hydroxy-2-methoxycarbonyl-3-(1-oxopropyl)-6,7,8-trimethoxynaphthalene], the IC50 in test [1] was 1850 nM. Moreover, the inhibition in vivo at 0.12 % in diet in test [2] (setting [3]) was 26%; in test [2] (setting [4]) it was 56%.
Taken in the same sequence, the figures for `COC(=O)c1c(C(=O)c2cccc(C)c2)c(O)c2cc(OC)c(OC)c(OC)c2c1-c1ccc(OC)c(OC)c1` [Example 18, 1-(3,4-Dimethoxyphenyl)-4-hydroxy-2-methoxycarbonyl-3-(3-methylbenzoyl)-6,7,8-trimethoxynaphthalene] were 1000 nM, 13% and 66%.
The corresponding values for `COC(=O)c1c(C(=O)c2ccc(C)cc2)c(O)c2cc(OC)c(OC)c(OC)c2c1-c1ccc(OC)c(OC)c1` [Example 19, 1-(3,4-Dimethoxyphenyl)-4-hydroxy-2-methoxycarbonyl-3-(4-methylbenzoyl)-6,7,8-trimethoxynaphthalene] are 1050 nM, 11% and 58%.
As for `COC(=O)c1c(C(=O)c2ccccc2OC)c(O)c2cc(OC)c(OC)c(OC)c2c1-c1ccc(OC)c(OC)c1` [Example 20, 1-(3,4-Dimethoxyphenyl)-4-hydroxy-3-(2-methoxybenzoyl)-2-methoxycarbonyl-6,7,8-trimethoxynaphthalene], the IC50 in test [1] came out at 2500 nM. Also, the inhibition in vivo at 0.12 % in diet came out at 14% in test [2] (setting [3]) and 63% in test [2] (setting [4]).
With `COC(=O)c1c(C(=O)c2ccc(OC)cc2)c(O)c2cc(OC)c(OC)c(OC)c2c1-c1ccc(OC)c(OC)c1` [Example 22, 1-(3,4-Dimethoxyphenyl)-4-hydroxy-3-(4-methoxybenzoyl)-2-methoxycarbonyl-6,7,8-trimethoxynaphthalene], the IC50 in test [1] came to 820 nM. In addition, the values for the inhibition in vivo at 0.12 % in diet in test [2] (setting [3]) and in test [2] (setting [4]) were 12% and 60%, respectively.
The corresponding values for `COC(=O)c1c(C(=O)c2ccc(Cl)cc2)c(O)c2cc(OC)c(OC)c(OC)c2c1-c1ccc(OC)c(OC)c1` [Example 23, 3-(4-Chlorobenzoyl)-1-(3,4-dimethoxyphenyl)-4-hydroxy-2-methoxycarbonyl-6,7,8-trimethoxynaphthalene] are 1420 nM, 28% and 74%.
The corresponding values for `COC(=O)c1c(C(=O)c2ccc(OC)c(OC)c2)c(O)c2cc(OC)c(OC)c(OC)c2c1-c1ccc(OC)c(OC)c1` [Example 24, 3-(3,4-Dimethoxybenzoyl)-1-(3,4-dimethoxyphenyl)-4-hydroxy-2-methoxycarbonyl-6,7,8-trimethoxynaphthalene] are 980 nM, 11% and 54%.
The corresponding values for `COC(=O)c1c(C(=O)c2ccc3ccccc3c2)c(O)c2cc(OC)c(OC)c(OC)c2c1-c1ccc(OC)c(OC)c1` [Example 25, 1-(3,4-Dimethoxyphenyl)-4-hydroxy-2-methoxycarbonyl-3-(2-naphthoyl)-6,7,8-trimethoxynaphthalene] are 2070 nM, 16% and 59%.
Take `COC(=O)c1c(C(=O)c2ccc(F)cc2)c(O)c2cc(OC)c(OC)c(OC)c2c1-c1ccc(OC)c(OC)c1` [Example 26, 1-(3,4-Dimethoxyphenyl)-3-(4-fluorobenzoyl)-4-hydroxy-2-methoxycarbonyl-6,7,8-trimethoxynaphthalene]: the IC50 in test [1] is 790 nM. Also, the inhibition in vivo at 0.12 % in diet in test [2] (setting [3]) turned out to be 10%; in test [2] (setting [4]), 54%.
In the case of `CCC(CC)C(=O)c1c(C(=O)OC)c(-c2ccc(OC)c(OC)c2)c2cc3c(cc2c1O)OCO3` [Example 33, 1-(3,4-Dimethoxyphenyl)-3-(2-ethyl-1-oxobutyl)-4-hydroxy-2-methoxycarbonyl-6,7-(methylenedioxy)naphthalene], the inhibition in vivo at 0.12 % in diet turned out to be 19% in test [2] (setting [3]) and 50% in test [2] (setting [4]).
With `COC(=O)c1c(C(=O)c2ccc(Cl)cc2)c(O)c2cc3c(cc2c1-c1ccc(OC)c(OC)c1)OCO3` [Example 34, 3-(4-Chlorobenzoyl)-1-(3,4-dimethoxyphenyl)-4-hydroxy-2-methoxycarbonyl-6,7-(methylenedioxy)naphthalene], the results for the inhibition in vivo at 0.12 % in diet in test [2] (setting [3]) and in test [2] (setting [4]) were 23% and 53%, respectively.
With `CCC(CC)CC(=O)c1c(C(=O)OC)c(-c2ccc3c(c2)OCCO3)c2c(OC)c(OC)c(OC)cc2c1O` [Example 60, 1-[3,4-(Ethylenedioxy)phenyl]-3-(3-ethyl-1-oxopentyl)-4-hydroxy-2-methoxycarbonyl-6,7,8-trimethoxynaphthalene], the inhibition in vivo at 0.12 % in diet was determined as 6% in test [2] (setting [3]) and 33% in test [2] (setting [4]).
